Measurements from patent US20240343681A1, “MOLECULES HAVING PESTICIDAL UTILITY AND INTERMEDIATES AND PROCESSES RELATED THERETO” (priority 2021, published 2024).

Experiments:
[1] = test system: Yellow Fever Mosquito (Aedes aegypti, AEDSAE) larvae; assay: Bioassay on yellow fever mosquito (YFM), 96-well plate larval assay; format: in vivo; details: 4000 ppm (master plate solution), about 1 day-old larvae, 3 days
Protocol: Example B: Bioassays on Yellow Fever Mosquito (Aedes aegypti, AEDSAE) (“YFM”)
Master plates containing 400 μg of a molecule dissolved in 100 μL of dimethyl sulfoxide (DMSO) (equivalent to a 4000 ppm solution) are used. A master plate of assembled molecules contains 15 μL per well. To this plate, 135 μL of a 90:10 water/acetone mixture is added to each well. A robot (Biomek® NXP Laboratory Automation Workstation) is programmed to dispense 15 μL aspirations from the master plate into an empty 96-well shallow plate (“daughter” plate). There are 6 reps (“daughter” plates) created per master. The created “daughter” plates are then immediately infested with YFM larvae.
The day before plates are to be treated, mosquito eggs are placed in Millipore water containing liver powder to begin hatching (4 g into 400 mL). After the “daughter” plates are created using the robot, they are infested with 220 μL of the liver powder/larval mosquito mixture (about 1 day-old larvae). After plates are infested with mosquito larvae, a non-evaporative lid is used to cover the plate to reduce drying. Plates are held at room temperature for 3 days prior to grading. After 3 days, each well is observed and scored based on mortality.

[2] = test system: Beet Armyworm (Spodoptera exigua, LAPHEG) second instar larva; assay: Bioassay on beet armyworm (BAW), 128-well diet tray assay; format: in vivo; details: 50 μg/cm^2 on artificial diet, 25° C., five days
Protocol: Example A: Bioassays on Beet Armyworm (Spodoptera exigua, LAPHEG) (“BAW”) and Cabbage Looper (Trichoplusia ni, TRIPNI) (“CL”)
Bioassays on BAW were conducted using a 128-well diet tray assay. One second instar BAW larva was placed in each well (8 wells total) of the diet tray that had been previously filled with 1 mL of artificial diet to which 50 μg/cm^2 of the test molecule (dissolved in 50 μL of 90:10 acetone-water mixture) had been applied (to each of eight wells) and then allowed to dry. Trays were covered with a clear self-adhesive cover, vented to allow gas exchange, and held at 25° C., 14:10 light-dark for five days. Percent mortality was recorded for the larvae in each well; activity in the eight wells was then averaged.

SMILES	activity against YFM (scored based on mortality) [1]	activity against BAW (percent mortality, averaged over eight wells) [2]
COCC(=O)Nc1cccc(NC(=O)[C@H]2[C@H](c3cc(Cl)cc(Cl)c3)C2(Cl)Cl)c1 (racemic) [F4, trans-rac-2,2-Dichloro-3-(3,5-dichlorophenyl)-N-(3-(2-methoxyacetamido)phenyl)cyclopropane-1-carboxamide]	exhibited activity	exhibited activity
O=C(CCC(F)(F)F)Nc1cc(NC(=O)[C@H]2[C@H](c3cc(Cl)cc(Cl)c3)C2(Cl)Cl)ccc1Cl (racemic) [F7, trans-rac-2,2-dichloro-N-(4-chloro-3-(4,4,4-trifluorobutanamido)phenyl)-3-(3,5-dichlorophenyl)cyclopropane-1-carboxamide]	exhibited activity	exhibited activity
O=C(Nc1cc(NC(=O)[C@H]2[C@H](c3cc(Cl)cc(Cl)c3)C2(Cl)Cl)ccc1Cl)c1c(F)cccc1F (racemic) [F25, trans-rac-N-(2-Chloro-5-(2,2-dichloro-3-(3,5-dichlorophenyl)cyclopropane-1-carboxamido)phenyl)-2,6-difluorobenzamide]	exhibited activity	exhibited activity
O=C(Nc1cc(NC(=O)[C@H]2[C@H](c3cc(Cl)cc(Cl)c3)C2(Cl)Cl)ccc1Cl)c1ccccn1 (racemic) [F28, trans-rac-N-(2-chloro-5-(2,2-dichloro-3-(3,5-dichlorophenyl)cyclopropane-1-carboxamido)phenyl)picolinamide]	exhibited activity	–
O=C(Nc1cc(NC(=O)[C@H]2[C@H](c3cc(Cl)cc(Cl)c3)C2(Cl)Cl)ccc1Cl)c1ccno1 (racemic) [F35, trans-rac-N-(2-Chloro-5-(2,2-dichloro-3-(3,5-dichlorophenyl)cyclopropane-1-carboxamido)phenyl)isoxazole-5-carboxamide]	exhibited activity	exhibited activity
COCC(=O)Nc1cc(NC(=O)[C@H]2[C@H](c3cc(Cl)cc(Cl)c3)C2(Cl)Cl)ccc1Cl (racemic) [F39, trans-rac-2,2-Dichloro-N-(4-chloro-3-(2-methoxyacetamido)phenyl)-3-(3,5-dichlorophenyl)cyclopropane-1-carboxamide]	exhibited activity	exhibited activity
CCOC(C)C(=O)Nc1cc(NC(=O)C2C(c3cc(Cl)cc(Cl)c3)C2(Cl)Cl)ccc1Cl (racemic) [F40, trans-rac-2,2-dichloro-N-(4-chloro-3-(2-ethoxypropanamido)phenyl)-3-(3,5-dichlorophenyl)cyclopropane-1-carboxamide]	exhibited activity	exhibited activity
N#CCC(=O)Nc1cc(NC(=O)[C@H]2[C@H](c3cc(Cl)cc(Cl)c3)C2(Cl)Cl)ccc1Cl (racemic) [F42, trans-rac-2,2-Dichloro-N-(4-chloro-3-(2-cyanoacetamido)phenyl)-3-(3,5-dichlorophenyl)cyclopropanecarboxamide]	exhibited activity	exhibited activity
CCCC(=O)Nc1cc(NC(=O)[C@H]2[C@H](c3cc(Cl)cc(Cl)c3)C2(Cl)Cl)ccc1Cl (racemic) [F45, trans-rac-N-(3-Butyramido-4-chlorophenyl)-2,2-dichloro-3-(3,5-dichlorophenyl)cyclopropane-1-carboxamide]	exhibited activity	–
O=C(Cc1ccccc1)Nc1cc(NC(=O)[C@H]2[C@H](c3cc(Cl)cc(Cl)c3)C2(Cl)Cl)ccc1Cl (racemic) [F48, trans-rac-2,2-Dichloro-N-(4-chloro-3-(2-phenylacetamido)phenyl)-3-(3,5-dichlorophenyl)cyclopropane-1-carboxamide]	exhibited activity	exhibited activity
O=C(CN1CCOCC1)Nc1cc(NC(=O)[C@H]2[C@H](c3cc(Cl)cc(Cl)c3)C2(Cl)Cl)ccc1Cl (racemic) [F50, trans-rac-2,2-Dichloro-N-(4-chloro-3-(2-morpholinoacetamido)phenyl)-3-(3,5-dichlorophenyl)cyclopropane-1-carboxamide]	exhibited activity	exhibited activity
O=C(CC1CC1)Nc1cccc(NC(=O)[C@H]2[C@H](c3cc(Cl)cc(Cl)c3)C2(Cl)Cl)c1F [F21, (1R,3R)-2,2-Dichloro-N-(3-(2-cyclopropylacetamido)-2-fluorophenyl)-3-(3,5-dichlorophenyl)cyclopropane-1-carboxamide]	exhibited activity	–
Cc1cc(C#N)ccc1C(=O)Nc1cc(NC(=O)[C@H]2[C@H](c3ccc(Cl)c(Cl)c3)C2(Cl)Cl)ccc1Cl [F99, N-(2-Chloro-5-((1R,3R)-2,2-dichloro-3-(3,4-dichlorophenyl)cyclopropane-1-carboxamido)phenyl)-4-cyano-2-methylbenzamide]	–	exhibited activity
CC(CC(=O)Nc1cc(NC(=O)[C@H]2[C@H](c3ccc(F)c(C(F)(F)F)c3)C2(Cl)Cl)ccc1Cl)C(F)(F)F (stereo partly drawn) [F102, (1R,3R)-2,2-Dichloro-N-(4-chloro-3-(4,4,4-trifluoro-3-methylbutanamido)phenyl)-3-(4-fluoro-3-(trifluoromethyl)phenyl)cyclopropane-1-carboxamide]	–	exhibited activity
Nc1c(F)ccc(C(=O)Nc2cc(NC(=O)[C@H]3[C@H](c4ccc(F)c(C(F)(F)F)c4)C3(Cl)Cl)ccc2Cl)c1F [F103, 3-amino-N-(2-chloro-5-((1R,3R)-2,2-dichloro-3-(4-fluoro-3-(trifluoromethyl)phenyl)cyclopropane-1-carboxamido)phenyl)-2,4-difluorobenzamide]	–	exhibited activity
O=C(Nc1cc(NC(=O)[C@H]2[C@H](c3ccc(F)c(C(F)(F)F)c3)C2(Cl)Cl)ccc1Cl)c1ccc(F)c(NC(=O)C(F)F)c1F [F104, N-(2-chloro-5-((1R,3R)-2,2-dichloro-3-(4-fluoro-3-(trifluoromethyl)phenyl)cyclopropane-1-carboxamido)phenyl)-3-(2,2-difluoroacetamido)-2,4-difluorobenzamide]	–	exhibited activity
COCC(=O)Nc1c(F)ccc(C(=O)Nc2cc(NC(=O)[C@H]3[C@H](c4ccc(F)c(C(F)(F)F)c4)C3(Cl)Cl)ccc2Cl)c1F [F105, N-(2-chloro-5-((1R,3R)-2,2-dichloro-3-(4-fluoro-3-(trifluoromethyl)phenyl)cyclopropane-1-carboxamido)phenyl)-2,4-difluoro-3-(2-methoxyacetamido)benzamide]	–	exhibited activity
O=C(Nc1cc(NC(=O)[C@@H]2[C@@H](c3ccc(F)c(C(F)(F)F)c3)C2(Cl)Cl)ccc1Cl)c1cnc(F)c(F)c1 [F110, N-(2-Chloro-5-((1S,3S)-2,2-dichloro-3-(4-fluoro-3-(trifluoromethyl)phenyl)cyclopropane-1-carboxamido)phenyl)-5,6-difluoronicotinamide]	–	exhibited activity
